Measurements from US11975073B2 (priority 2020, dated 2024).
Where two headings read alike, the source gives them in different places.

Assays:
[1] = male, Sprague-Dawley, rat, in vivo, po
[2] = Sprague-Dawley, rat, in vivo, 8.8 umol/kg
[3] = cynomolgus monkey, in vivo, po; for AUCinf, free allopregnanolone / AUCinf, total allopregnanolone / Cmax, free allopregnanolone / Cmax, total allopregnanolone: male, 8.8 umol/kg

CCCCCCCC/C=C\CCCCCCCC(=O)OCC(COC(=O)CCCCCCC/C=C\CCCCCCCC)OC(=O)CC(C)CC(=O)OCO[C@@H]1CC[C@@]2(C)[C@@H](CC[C@@H]3[C@@H]2CC[C@]2(C)[C@@H](C(C)=O)CC[C@@H]32)C1 (stereo partly drawn) [I-9]
Cmax ([1]; 2 mg/kg): 126 nM | Mean Plasma AUC, 0-24 h ([1]; 2 mg/kg): 192.1 nM·h | Tmax ([1]; 2 mg/kg): 1.3 h

CCCCCCCC(=O)OCC(COC(=O)CCCCCCC)OC(=O)CC(C)CC(=O)OC(C)OC(=O)O[C@@H]1CC[C@@]2(C)[C@@H](CC[C@@H]3[C@@H]2CC[C@]2(C)[C@@H](C(C)=O)CC[C@@H]32)C1 (stereo partly drawn) [I-36, ALL-CMSI-C5bMe-2-TG-octanoate]
Cmax [1]: 242 nM | Tmax [1]: 1.2 h | AUCinf, free allopregnanolone [2]: 1.12 nM·h | AUCinf, total allopregnanolone [2]: 3.86 nM·h | Cmax, free allopregnanolone [2]: 540 nM | Cmax, total allopregnanolone [2]: 800 nM | Prodrug detectability in plasma samples after dose administration [3]: detectable in plasma samples after dose administration at all time-points | AUCinf, free allopregnanolone [3]: 0.62 nM·h | AUCinf, total allopregnanolone [3]: 16.2 nM·h | Cmax, free allopregnanolone [3]: 100 nM | Cmax, total allopregnanolone [3]: 2720 nM

CCCC(=O)OCC(COC(=O)CCC)OC(=O)CC(C)CC(=O)OC(C)OC(=O)O[C@@H]1CC[C@@]2(C)[C@@H](CC[C@@H]3[C@@H]2CC[C@]2(C)[C@@H](C(C)=O)CC[C@@H]32)C1 (stereo partly drawn) [I-37]
Tmax [1]: 0.8 h

CC(=O)OCC(COC(C)=O)OC(=O)CC(C)CC(=O)OC(C)OC(=O)O[C@@H]1CC[C@@]2(C)[C@@H](CC[C@@H]3[C@@H]2CC[C@]2(C)[C@@H](C(C)=O)CC[C@@H]32)C1 (stereo partly drawn) [I-38]
Mean Plasma AUC, 0-24 h [1]: 450 nM·h | Tmax [1]: 1 h

CCCCCCCC/C=C\CCCCCCCC(=O)OCC(COC(=O)CCCCCCC/C=C\CCCCCCCC)OC(=O)CCCCC(=O)OCO[C@@H]1CC[C@@]2(C)[C@@H](CC[C@@H]3[C@@H]2CC[C@]2(C)[C@@H](C(C)=O)CC[C@@H]32)C1 [I-40]
Tmax ([1]; 2 mg/kg): 1.7 h

CCCCCCCC/C=C\CCCCCCCC(=O)OCC(COC(=O)CCCCCCC/C=C\CCCCCCCC)OC(=O)CCCCCCC(=O)OCO[C@@H]1CC[C@@]2(C)[C@@H](CC[C@@H]3[C@@H]2CC[C@]2(C)[C@@H](C(C)=O)CC[C@@H]32)C1 [I-41]
Tmax ([1]; 2 mg/kg): 1.7 h

CCCCCCCC/C=C\CCCCCCCC(=O)OCC(COC(=O)CCCCCCC/C=C\CCCCCCCC)OC(=O)CC(C)CCCCC(=O)OCO[C@@H]1CC[C@@]2(C)[C@@H](CC[C@@H]3[C@@H]2CC[C@]2(C)[C@@H](C(C)=O)CC[C@@H]32)C1 (stereo partly drawn) [I-42]
Tmax ([1]; 2 mg/kg): 1.5 h

CCCCCCCC(=O)OCC(COC(=O)CCCCCCC)OC(=O)CC(C)CC(=O)OCOC(=O)O[C@@H]1CC[C@@]2(C)[C@@H](CC[C@@H]3[C@@H]2CC[C@]2(C)[C@@H](C(C)=O)CC[C@@H]32)C1 (stereo partly drawn) [I-47, ALL-CASI-C5bMe-2-TG-octanoate]
AUCinf, free allopregnanolone [2]: 1.15 nM·h | AUCinf, total allopregnanolone [2]: 3.03 nM·h | Cmax, free allopregnanolone [2]: 520 nM | Cmax, total allopregnanolone [2]: 900 nM | Prodrug detectability in plasma samples after dose administration [3]: detectable in plasma samples after dose administration at all time-points | AUCinf, free allopregnanolone [3]: 0.78 nM·h | AUCinf, total allopregnanolone [3]: 7.4 nM·h | Cmax, free allopregnanolone [3]: 120 nM | Cmax, total allopregnanolone [3]: 1170 nM

CCCCCCCC/C=C\CCCCCCCC(=O)OCC(COC(=O)CCCCCCC/C=C\CCCCCCCC)OC(=O)CCCCC(C)CC(=O)OCOC(=O)O[C@@H]1CC[C@@]2(C)[C@@H](CC[C@@H]3[C@@H]2CC[C@]2(C)[C@@H](C(C)=O)CC[C@@H]32)C1 (stereo partly drawn) [I-49, ALL-CASI-C8b′Me-2-TG-oleate]
Tmax ([1]; 2 mg/kg): 1.7 h
